Laboratory results: patent publication US20160312292A1, “METHODS FOR TREATING HEMATOLOGICAL CANCERS AND THE USE OF BIOMARKERS AS A PREDICTOR OF CLINICAL SENSITIVITY TO IMMUNODULATORY THERAPIES” (CELGENE CORPORATION, priority 2013, published 2016)
Values joined by “and” are separate entries in the source; they are usually repeats but may differ in a detail not shown here. Identical values can stand only once.

Tested on: refractory or relapsed diffuse large B-Cell lymphoma (DLBCL) patients
Assay: Clinical trial of lenalidomide in refractory or relapsed DLBCL patients: best response, PFS, OS
Type: in vivo, human
Excerpt: A clinical trial was formed with four arms, each arm containing 25 patients. One arm contained patients classified as presenting germinal center B-cell-like DLBCL subtypes receiving lenalidomide, a second arm contained patients classified as presenting germinal center B-cell-like DLBCL subtypes receiving another therapy selected by the investigator, a third arm contained patients classified as presenting activated B-cell-like DLBCL subtypes receiving lenalidomide, and a fourth arm contained patients classified as presenting activated B-cell-like DLBCL subtypes receiving another therapy selected by the investigator. The patients in the four arms of the clinical trial received treatment until disease progression.
For purposes of this exploratory analysis, a subset of the clinical data associated to each patient comprised the therapy arm, Revlimid (REV) or control drug (CON), and their corresponding response to the drug in both categorical variable {complete response (CR), partial response (PR), establish disease (SD), progression disease (PD) and Death} and continuous variables as progression free survival (PFS) and overall (OS), unit weeks. It also includes the predicted DLBCL sub-type (ABC/GCB) and other demographic data. […]

Nc1cccc2c1CN(C1CCC(=O)NC1=O)C2=O (centres unmarked) [lenalidomide, 3-(4-amino-1-oxo-1,3-dihydro-isoindol-2-yl)-piperidine-2,6-dione]
progression free survival (PFS) (individual Revlimid-arm DLBCL patients whose baseline FF profile had a non-zero estimated proportion of NK-cells): 27 weeks and 31.9 weeks and 32.4 weeks and 85.3 weeks
progression free survival (PFS) (one lenalidomide-treated DLBCL patient with low B aIgM proportion who died shortly after starting treatment): < 3 weeks
